From ChEMBL document CHEMBL1146176, “Synthesis and anti-microbial activity of pyrazolylbisindoles--promising anti-fungal compounds” (2006)

How the values were obtained:
Format in all cases: functional
[1] = tested on: Staphylococcus epidermidis; experiment: Antimicrobial activity against Staphylococcus epidermidis at 1 mmol after 48 hrs relative to control
Candida albicans [2] = experiment: Antimicrobial activity against Candida albicans at 1 mmol after 48 hrs
Pseudomonas aeruginosa [3] = experiment: Antimicrobial activity against Pseudomonas aeruginosa at 1 mmol after 48 hrs relative to control
Candida albicans [4] = experiment: Antimicrobial activity against Candida albicans at 1 mmol after 48 hrs relative to control
Pseudomonas aeruginosa [5] = experiment: Antimicrobial activity against Pseudomonas aeruginosa at 1 mmol after 48 hrs
Curvularia lunata [6] = experiment: Antifungal activity against Curvularia lunata at 1 mmol after 48 hrs
[7] = tested on: Staphylococcus epidermidis; experiment: Antimicrobial activity against Staphylococcus epidermidis at 1 mmol after 48 hrs
Thanatephorus cucumeris [8] = experiment: Antifungal activity against Rhizoctonia solani at 1 mmol after 48 hrs relative to control
Thanatephorus cucumeris [9] = experiment: Antifungal activity against Rhizoctonia solani at 1 mmol after 48 hrs
Curvularia lunata [10] = experiment: Antifungal activity against Curvularia lunata at 1 mmol after 48 hrs relative to control
Pseudomonas aeruginosa [11] = experiment: Inhibition of growth of Pseudomonas aeruginosa at 0.622 mg/ml after 48 hrs; settings: read-out: IZ
[12] = tested on: Staphylococcus epidermidis; experiment: Inhibition of growth of Staphylococcus epidermidis at 0.622 mg/ml after 48 hrs; settings: read-out: IZ
[13] = tested on: Staphylococcus epidermidis; experiment: Inhibition of growth of Staphylococcus epidermidis at 0.622 mg/ml after 48 hrs relative to control
Candida albicans [14] = experiment: Antimicrobial activity against Candida albicans at 0.622 mg/ml after 48 hrs relative to control
Candida albicans [15] = experiment: Antimicrobial activity against Candida albicans at 0.622 mg/ml after 48 hrs; settings: read-out: IZ
Pseudomonas aeruginosa [16] = experiment: Inhibition of growth of Pseudomonas aeruginosa at 0.622 mg/ml after 48 hrs relative to control
Curvularia lunata [17] = experiment: Antifungal activity against Curvularia lunata at 0.652 mg/ml after 48 hrs; settings: read-out: IZ
Thanatephorus cucumeris [18] = experiment: Antifungal activity against Rhizoctonia solani at 0.652 mg/ml after 48 hrs; settings: read-out: IZ
Curvularia lunata [19] = experiment: Antifungal activity against Curvularia lunata at 0.652 mg/ml after 48 hrs relative to control
Thanatephorus cucumeris [20] = experiment: Antifungal activity against Rhizoctonia solani at 0.652 mg/ml after 48 hrs relative to control

Structure (SMILES)	Inhibition [1] [%]	inhibition zone (IZ) (Candida albicans [2]) [cm]	Inhibition (Pseudomonas aeruginosa [3]) [%]	Inhibition (Candida albicans [4]) [%]	inhibition zone (IZ) (Pseudomonas aeruginosa [5]) [cm]	inhibition zone (IZ) (Curvularia lunata [6]) [cm]	inhibition zone (IZ) [7] [cm]	Inhibition (Thanatephorus cucumeris [8]) [%]	inhibition zone (IZ) (Thanatephorus cucumeris [9]) [cm]	Inhibition (Curvularia lunata [10]) [%]	zone of inhibition at 622 µg/mL (Pseudomonas aeruginosa [11]) [mm]	zone of inhibition at 622 µg/mL [12] [mm]	Inhibition [13] [%]	inhibition at 622 µg/mL (Candida albicans [14]) [%]	zone of inhibition at 622 µg/mL (Candida albicans [15]) [mm]	inhibition at 622 µg/mL (Pseudomonas aeruginosa [16]) [%]	zone of inhibition at 652 µg/mL (Curvularia lunata [17]) [mm]	zone of inhibition at 652 µg/mL (Thanatephorus cucumeris [18]) [mm]	inhibition at 652 µg/mL (Curvularia lunata [19]) [%]	inhibition at 652 µg/mL (Thanatephorus cucumeris [20]) [%]
CCn1c(-c2ccccc2)c(C(c2cn(-c3ccccc3)nc2-c2ccc(Br)cc2)c2c(-c3ccccc3)n(CC)c3ccccc23)c2ccccc21	7.9	0	0	0	0	7.8	0.7	16.7	7.5	13.3	–	–	–	–	–	–	–	–	–	–
O=[N+]([O-])c1ccc2[nH]cc(C(c3cn(-c4ccccc4)nc3-c3ccccc3)c3c[nH]c4ccc([N+](=O)[O-])cc34)c2c1	0	0	14.4	0	1.3	9	0	0	9	0	–	–	–	–	–	–	–	–	–	–
Clc1ccc(-c2nn(-c3ccccc3)cc2C(c2c[nH]c3ccc(Br)cc23)c2c[nH]c3ccc(Br)cc23)cc1	0	0.6	0	6.7	0	7.6	0	17.8	7.4	15.6	–	–	–	–	–	–	–	–	–	–
Brc1ccc2[nH]cc(C(c3cn(-c4ccccc4)nc3-c3ccccc3)c3c[nH]c4ccc(Br)cc34)c2c1	–	2.7	–	–	1.8	4.7	2.1	41.1	5.3	47.8	18	21	≤ 23.3	30	27	20	–	–	–	–
COc1ccc(-c2nn(-c3ccccc3)cc2C(c2c[nH]c3ccc([N+](=O)[O-])cc23)c2c[nH]c3ccc([N+](=O)[O-])cc23)cc1	0	0	0	0	0	1.4	0	53.3	4.8	84.4	–	–	–	–	–	–	–	–	–	–
COc1ccc(-c2nn(-c3ccccc3)cc2C(c2c[nH]c3ccc(Br)cc23)c2c[nH]c3ccc(Br)cc23)cc1	0	0	15.6	0	1.4	–	0	–	–	–	–	–	–	–	–	–	3	5	96.7	93.9
Brc1ccc(-c2nn(-c3ccccc3)cc2C(c2c[nH]c3ccc(Br)cc23)c2c[nH]c3ccc(Br)cc23)cc1	0	2.2	16.7	24.4	1.5	0.8	0	81.1	1.7	91.1	–	–	–	–	–	–	–	–	–	–
CCn1c(-c2ccccc2)c(C(c2cn(-c3ccccc3)nc2-c2ccc(Cl)cc2)c2c(-c3ccccc3)n(CC)c3ccccc23)c2ccccc21	15.6	0.5	15.6	5.6	1.4	5.2	1.4	18.8	7.3	42.2	–	–	–	–	–	–	–	–	–	–
